According to patent publication US12071414B2, “Apelin receptor agonists and methods of use thereof” (Sanford Burnham Prebys Medical Discovery Institute, priority 2015, dated 2024):

Molecular target: T1, human apelin receptor (APJ, AGTRL-one, APLNR) (Homo sapiens, UniProt P35414)
T1 construct: host or cells: Chinese hamster ovary cells, stably integrated receptor
T1 sequence (P35414 1-380): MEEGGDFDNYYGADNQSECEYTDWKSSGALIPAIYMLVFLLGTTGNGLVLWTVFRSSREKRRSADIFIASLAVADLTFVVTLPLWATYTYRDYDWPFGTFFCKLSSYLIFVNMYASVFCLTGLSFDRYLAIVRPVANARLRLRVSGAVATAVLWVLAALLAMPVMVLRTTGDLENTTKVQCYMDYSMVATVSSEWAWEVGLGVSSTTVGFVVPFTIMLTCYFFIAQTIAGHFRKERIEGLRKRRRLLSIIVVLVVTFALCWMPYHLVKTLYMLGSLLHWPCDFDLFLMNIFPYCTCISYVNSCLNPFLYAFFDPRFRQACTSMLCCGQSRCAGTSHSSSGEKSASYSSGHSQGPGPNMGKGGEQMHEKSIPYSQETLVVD
Assay: cell-based cAMP TR-FRET assay of apelin receptor activation
Conditions: CHO cells expressing human APJ, forskolin-stimulated cAMP, 0.5 h incubation, 50% of control (apelin-13, 1 nM) response; read-out: Potency Category (EC50)
Experimental: The assays disclosed herein were performed using cell lines from DiscoveX, Inc. Biological activity was determined to the cell—based assay. This assay detects activation of the receptor by reporting on intracellular cyclic adenosine monophosphate (cAMP) level. Chinese hamster ovary cells engineered to express the stably integrated human apelin receptor (APJ, AGTRL—one, APLNR), pleaded into the wells of the microtiter plate. Cells were stimulated with […] to increase intracellular cyclic AMP. Immediately following, compounds were added to the range of final concentrations 0.0-100 μM, in DMSO (not to exceed a final DMSO concentration greater than 1% ν/ν), and allowed to incubate with the cells for 0.5 h. At the end of the incubation, cells were lysed to stop APJ signaling and cAMP was quantified using a commercially available competitive immunoassay kit that applies homogenous time—resolved florescence energy transfer (TR—FRET). The assay is based on the competition between a europium (Eu) chelate—labeled cAMP donor tracer and cellular cAMP for binding sites on a cAMP—specific monoclonal antibody labeled with an acceptor fluorophore. When antibodies are bound to the cAMP tracer light emissions at 320 nm stimulate the energy transfer from the donor to the acceptor, which in turn emits light at 665 nm. In the presence of competitive unlabeled cAMP (derived from the activity of the receptor or forskolin-stimulated production of cAMP), the labelled cAMP tracer is dissociated from the cAMP antibody, resulting in a loss of FRET signal. The amount of light emitted by the FRET is inversely proportional to the cAMP generated by the cell/receptor system. Potency and efficacy at APJ are reported in reference to the canonical APJ receptor agonist apelin—13 when tested at 1 nM. […] Compound efficacy (% response) is reported as a percentage of the maximal apein-13 response at 1 nM (control). Potencies were calculated by fitting a […] logistic curve to concentration response consisting of at least 10 discrete data points spanning effective range of the compounds in the cell-based assay that measures cAMP. […] Category B is 200-500 nM; Category C is 100-200 nM; Category D is 50-100 nM; and Category E is <50 nM.

Row | Structure (SMILES) | EC50 [µM]
1 | COc1cc2nc(NC(=O)C(Oc3ccc(C#N)cc3)c3cccc(Br)c3)sc2cc1OC (stereo not drawn) | > 0.5
2 | CCS(=O)(=O)c1ccc(C(Oc2ccc(C(=O)OC)cc2)C(=O)Nc2nc3cc(OC)c(OC)cc3s2)cc1 (stereo not drawn) | < 0.05
3 | CCCOC(C(=O)Nc1nc2cc(OC)c(OC)cc2s1)c1ccc(S(=O)(=O)CC)cc1 (stereo not drawn) | > 0.5
4 | CCS(=O)(=O)c1ccc(C(NC2CCCC2)C(=O)Nc2nc3cc(OC)c(OC)cc3s2)cc1 (stereo not drawn) | > 0.5
5 | CCS(=O)(=O)c1ccc(C(Oc2ccc(C(=O)O)cc2)C(=O)Nc2nc3cc(OC)c(OC)cc3s2)cc1 (stereo not drawn) | > 0.5
6 | CCS(=O)(=O)c1ccc(C(Oc2ccc(C#N)cc2)C(=O)Nc2nc3ccc(OCCN4CCOCC4)cc3s2)cc1 (stereo not drawn) | > 0.5
7 | COc1cc2nc(NC(=O)C(Oc3ccc(C(=O)O)cc3)c3ccc(C#N)cc3)sc2cc1OC (stereo not drawn) | > 0.5
8 | CCS(=O)(=O)c1ccc(C(Oc2ccc(OC)cc2)C(=O)Nc2nc3cc4c(cc3s2)OCO4)cc1 (stereo not drawn) | > 0.5
9 | CCS(=O)(=O)c1ccc(CC(=O)Nc2nc3c4c(ccc3s2)OCO4)cc1 | > 0.5
10 | COc1cc2nc(NC(=O)C(Oc3ccc(C#N)cc3)c3cccc(S(=O)(=O)Cc4ccccc4)c3)sc2cc1OC (stereo not drawn) | < 0.05
11 | CCOc1c(OC)ccc2nc(NC(=O)C(Oc3ccc(C#N)cc3)c3ccc(S(=O)(=O)CC)cc3)sc12 (stereo not drawn) | < 0.05
12 | COc1cc2nc(NC(=O)Cc3ccc(S(=O)(=O)C4CCCC4)cc3)sc2cc1OC | > 0.5
13 | COc1cc2nc(NC(=O)C(Oc3ccc(C#N)cc3)c3ccc(C(=O)NCCN4CCCCC4)cc3)sc2cc1OC (stereo not drawn) | < 0.05
14 | CCS(=O)(=O)c1ccc(C(Oc2ccc(C3CCCCC3)cc2)C(=O)Nc2nc3cc(OC)c(OC)cc3s2)cc1 (stereo not drawn) | > 0.5
15 | CCS(=O)(=O)c1ccc(C(Oc2ccc(C#N)cc2F)C(=O)Nc2nc3cc(OC)c(OC)cc3s2)cc1 (stereo not drawn) | < 0.05
16 | CCS(=O)(=O)c1ccc(C(Oc2ccc(C#N)cc2)C(=O)Nc2nc3cc(OCCO)c(OC)cc3s2)cc1 (stereo not drawn) | 0.2 to 0.5
17 | CCS(=O)(=O)c1ccc(C(Oc2ccc(C#N)cc2)C(=O)Nc2nc3ccccc3o2)cc1 (stereo not drawn) | > 0.5
18 | COc1cc2nc(NC(=O)C(Oc3ccc(OCCO)cc3)c3ccc(C#N)cc3)sc2cc1OC (stereo not drawn) | < 0.05
19 | CCS(=O)(=O)c1ccccc1C(Oc1ccc(C#N)cc1)C(=O)Nc1nc2cc(OC)c(OC)cc2s1 (stereo not drawn) | < 0.05
20 | CCS(=O)(=O)c1ccc(C(OC2CCOCC2)C(=O)Nc2nc3cc(OC)c(OC)cc3s2)cc1 (stereo not drawn) | > 0.5
21 | CCS(=O)(=O)c1ccc(C(Oc2ccc(C#N)cc2)C(=O)Nc2nc3cc(Cl)c(OC)cc3s2)cc1 (stereo not drawn) | 0.2 to 0.5
22 | CCS(=O)(=O)c1ccc(C(Oc2ccc(OC)cc2)C(=O)Nc2nc3ccc(OC)cc3s2)cc1 (stereo not drawn) | > 0.5
23 | CCS(=O)(=O)c1ccc(C(Oc2ccc(F)cc2)C(=O)Nc2nc3cc(OC)c(OC)cc3s2)cc1 (stereo not drawn) | > 0.5

Row | Structure (SMILES) | EC50 [µM]
24 | CCS(=O)(=O)c1ccc(C(Nc2cccc(OC)c2)C(=O)Nc2nc3cc(OC)c(OC)cc3s2)cc1 (stereo not drawn) | > 0.5
25 | CCS(=O)(=O)c1ccc(C(OC2CCCC2)C(=O)Nc2nc3cc(OC)c(OC)cc3s2)cc1 (stereo not drawn) | > 0.5
26 | COc1cc2nc(NC(=O)C(Oc3ccc(C#N)cc3)c3ccc(C(F)(F)F)cc3)sc2cc1OC (stereo not drawn) | > 0.5
27 | COc1cc2nc(NC(=O)C(Oc3ccc(C#N)cc3)c3ccc(C(=O)N4CCN(C)CC4)cc3)sc2cc1OC (stereo not drawn) | 0.2 to 0.5
28 | COc1cc2nc(NC(=O)C(Oc3ccc(C#N)cc3)c3ccc(C(=O)N4CCN(C)CC4)cc3)oc2cc1OC (stereo not drawn) | < 0.05
29 | COCCNC(=O)c1ccc(C(Oc2ccc(C#N)cc2)C(=O)Nc2nc3cc(OC)c(OC)cc3o2)cc1 (stereo not drawn) | 0.05 to 0.1
30 | COc1cc2nc(NC(=O)C(Oc3ccc(O)cc3)c3ccc(C#N)cc3)sc2cc1OC (stereo not drawn) | > 0.5
31 | COc1cc2nc(NC(=O)Cc3ccc(S(=O)(=O)N(C)C)cc3)sc2cc1OC | > 0.5
32 | COc1cc2nc(NC(=O)C(Oc3ccc(C#N)cc3)c3cccc(S(=O)(=O)c4ccc(Cl)cc4)c3)sc2cc1OC (stereo not drawn) | 0.2 to 0.5
33 | CCS(=O)(=O)c1ccc(C(Oc2cccc(Cl)c2)C(=O)Nc2nc3cc(OC)c(OC)cc3s2)cc1 (stereo not drawn) | > 0.5
34 | CCS(=O)(=O)c1ccc(C(Oc2ccc(C#N)cc2)C(=O)Nc2nc3cc(F)c(OC)cc3s2)cc1 (stereo not drawn) | > 0.5
35 | CCS(=O)(=O)c1ccc(C(OCC(C)C)C(=O)Nc2nc3cc(OC)c(OC)cc3s2)cc1 (stereo not drawn) | > 0.5
36 | CCS(=O)(=O)c1ccc(CC(=O)Nc2nc3cc(OC)c(O)cc3[nH]2)cc1 | > 0.5
37 | CCS(=O)(=O)c1ccc(C(Oc2ccc(OC)cc2)C(=O)Nc2nc3cc(OC)c(OC)cc3s2)cc1 (stereo not drawn) | > 0.5
38 | COc1cc2nc(NC(=O)C(Oc3ccc(C#N)cc3)c3ccc(C(=O)NCCN4CCOCC4)cc3)sc2cc1OC (stereo not drawn) | 0.1 to 0.2
39 | CCS(=O)(=O)c1ccc(C(Oc2ccccc2Cl)C(=O)Nc2nc3cc(OC)c(OC)cc3s2)cc1 (stereo not drawn) | > 0.5
40 | CCS(=O)(=O)c1ccc(C(Oc2ccc(C(F)(F)F)cc2)C(=O)Nc2nc3cc(OC)c(OC)cc3s2)cc1 (stereo not drawn) | 0.2 to 0.5
41 | COc1cc2nc(NC(=O)C(Oc3ccc(C#N)cc3)c3ccc(OCCN4CCCC4)cc3)sc2cc1OC (stereo not drawn) | 0.2 to 0.5
42 | COc1cc2nc(NC(=O)C(Oc3ccc(C(=O)N4CCN(C)CC4)cc3)c3ccc(C#N)cc3)sc2cc1OC (stereo not drawn) | 0.05 to 0.1
43 | COc1cc2nc(NC(=O)Cc3cccc(S(=O)(=O)CC4CC4)c3)sc2cc1OC | > 0.5
44 | COc1cc2nc(NC(=O)C(Oc3ccc(C#N)cc3)c3ccc(-c4nnn[nH]4)cc3)sc2cc1OC (stereo not drawn) | > 0.5
45 | CCS(=O)(=O)c1ccc(C(OC)C(=O)Nc2nc3cc(OC)c(OC)cc3s2)cc1 (stereo not drawn) | > 0.5
46 | CCOc1ccc(OC(C(=O)Nc2nc3cc(OC)c(OC)cc3s2)c2ccc(S(=O)(=O)CC)cc2)cc1 (stereo not drawn) | 0.2 to 0.5

Row | Structure (SMILES) | EC50 [µM]
47 | CCS(=O)(=O)c1ccc(C(Nc2ccc(C)cc2)C(=O)Nc2nc3cc(OC)c(OC)cc3s2)cc1 (stereo not drawn) | > 0.5
48 | CCS(=O)(=O)c1ccc(C(Oc2ccc(C#N)cc2)C(=O)Nc2nc3cc(OCCN4CCOCC4)c(OC)cc3s2)cc1 (stereo not drawn) | > 0.5
49 | COc1cc2nc(NC(=O)C(Oc3ccccc3)c3ccc(C#N)cc3)sc2cc1OC (stereo not drawn) | > 0.5
50 | CCS(=O)(=O)c1ccc(C(Oc2ccc(C#N)cc2)C(=O)Nc2nc3cc(OC(C)C)c(OC)cc3s2)cc1 (stereo not drawn) | 0.2 to 0.5
51 | CCS(=O)(=O)c1cccc(C(Oc2ccc(C#N)cc2)C(=O)Nc2nc3cc(OC)c(OC)cc3s2)c1 (stereo not drawn) | 0.2 to 0.5
52 | CCS(=O)(=O)c1ccc(C(Oc2ccc(C#N)cc2)C(=O)Nc2nc3ccc(C)c(OC)c3s2)cc1 (stereo not drawn) | 0.05 to 0.1
53 | COc1cc2nc(NC(=O)C(Oc3ccc(C#N)cc3)c3ccc(C#N)cc3)sc2cc1OC (stereo not drawn) | < 0.05
54 | CCS(=O)(=O)c1ccc(C(Oc2ccc(C#N)cc2)C(=O)Nc2nc3c4c(ccc3s2)OCO4)cc1 (stereo not drawn) | > 0.5
55 | CCS(=O)(=O)c1ccc(C(Oc2ccc(C#N)cc2)C(=O)Nc2cc3cc(OC)c(OC)cc3[nH]2)cc1 (stereo not drawn) | > 0.5
56 | CCS(=O)(=O)c1ccc(C(OC2CCCCC2)C(=O)Nc2nc3cc(OC)c(OC)cc3s2)cc1 (stereo not drawn) | > 0.5
57 | CCS(=O)(=O)c1ccc(C(Oc2ccc(C#N)cc2)C(=O)N(C)c2nc3cc(OC)c(OC)cc3s2)cc1 (stereo not drawn) | 0.05 to 0.1
58 | CCS(=O)(=O)c1ccc(C(OC(C)C)C(=O)Nc2nc3cc(OC)c(OC)cc3s2)cc1 (stereo not drawn) | > 0.5
59 | COc1cc2nc(NC(=O)C(Oc3ccc(C#N)cc3)c3ccc(C(=O)NCCN(C)C)cc3)sc2cc1OC (stereo not drawn) | 0.05 to 0.1
60 | COc1cc2nc(NC(=O)C(Oc3ccc(C#N)cc3)c3cccc(S(=O)(=O)C(C)(C)C)c3)sc2cc1OC (stereo not drawn) | 0.05 to 0.1
61 | COc1cc2nc(NC(=O)C(Oc3ccc(C#N)cc3)c3ccc(S(=O)(=O)CC4CC4)cc3)sc2cc1OC (stereo not drawn) | < 0.05
62 | COc1cc2nc(NC(=O)Cc3ccccc3C(=O)N(C)C)sc2cc1OC | > 0.5
63 | CCOc1ccc(C(Oc2ccc(C#N)cc2)C(=O)Nc2nc3cc(OC)c(OC)cc3s2)cc1 (stereo not drawn) | < 0.05
64 | CCS(=O)(=O)c1ccc(C(Oc2ccc(C#N)c(Cl)c2)C(=O)Nc2nc3cc(OC)c(OC)cc3s2)cc1 (stereo not drawn) | < 0.05
65 | CCS(=O)(=O)c1ccc(C(Oc2ccc([N+](=O)[O-])cc2)C(=O)Nc2nc3cc(OC)c(OC)cc3s2)cc1 (stereo not drawn) | < 0.05
66 | CCS(=O)(=O)c1ccc(CC(=O)Nc2nc3ccc(N4CCN(C)CC4)cc3s2)cc1 | > 0.5
67 | CCS(=O)(=O)c1ccc(C(Oc2ccccc2OC)C(=O)Nc2nc3cc(OC)c(OC)cc3s2)cc1 (stereo not drawn) | > 0.5
68 | COc1cc2nc(NC(=O)C(Oc3ccc(OCCN4CCCC4)cc3)c3ccc(C#N)cc3)sc2cc1OC (stereo not drawn) | 0.05 to 0.1
69 | CCS(=O)(=O)c1ccc(C(Oc2ccc(C#N)cc2)C(=O)Nc2nc3cc(OC)c(C)cc3s2)cc1 (stereo not drawn) | 0.2 to 0.5
